Measurements taken from US8283378B2, “Phenylurea inhibitors of the SOAT-1 enzyme and pharmaceutical/cosmetic compositions comprised thereof” (Galderma Research & Development, priority 2007, dated 2012).

Biological target: T1, enzyme ACAT-1 (Homo sapiens, UniProt P35610)
T1 construct: endogenous in cells; host or cells: HepG2
T1 sequence (P35610 1-550): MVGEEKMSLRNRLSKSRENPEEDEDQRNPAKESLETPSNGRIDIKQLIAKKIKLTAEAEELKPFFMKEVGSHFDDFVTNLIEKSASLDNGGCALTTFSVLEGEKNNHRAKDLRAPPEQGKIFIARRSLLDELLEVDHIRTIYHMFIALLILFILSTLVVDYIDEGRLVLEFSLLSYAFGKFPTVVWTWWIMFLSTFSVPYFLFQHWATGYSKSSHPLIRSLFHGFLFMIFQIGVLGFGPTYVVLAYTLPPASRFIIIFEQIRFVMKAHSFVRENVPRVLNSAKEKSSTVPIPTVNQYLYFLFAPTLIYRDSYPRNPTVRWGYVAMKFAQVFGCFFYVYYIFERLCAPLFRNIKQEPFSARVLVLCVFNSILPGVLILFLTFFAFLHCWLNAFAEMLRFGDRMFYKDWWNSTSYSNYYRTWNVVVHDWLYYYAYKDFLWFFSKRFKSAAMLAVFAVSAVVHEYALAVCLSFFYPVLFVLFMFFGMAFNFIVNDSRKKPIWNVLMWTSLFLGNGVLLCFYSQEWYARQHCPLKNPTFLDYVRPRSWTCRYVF
Assay: primary HepG2 enzyme test: cell-based NBD-cholesterol fluorescence assay of ACAT-1 (SOAT-1) inhibition
Conditions: HepG2 cells, NBD-cholesterol 1 μg/ml, incubation 6 h at 37° C., fluorescence excitation 490 nm / emission 540 nm
Protocol: The compounds (I) according to the invention, as well as their pharmaceutically acceptable salts, solvates and/or hydrates, display SOAT-1 enzyme inhibiting properties. This inhibitory effect on the SOAT-1 enzyme is measured by a primary HepG2 enzyme test, as described below.
The compounds of formula (I) according to the invention were tested to evaluate their inhibitory activity with respect to the enzyme ACAT-1 based on the following work: “Identification of ACAT1- and ACAT2-specific inhibitors using a novel, cell based fluorescence assay: individual ACAT uniqueness”, J. lipid. Res (2004) vol 45, pages 378-386. The principle of this test is based on the use of NBD-cholesterol, an analogue of cholesterol with fluorescence depending on its environment. When it is in a polar environment it is weakly fluorescent, whereas in a non-polar environment it is strongly fluorescent. Free NBD-cholesterol localizes in the cell membranes and is weakly fluorescent in this polar environment. […]
The following method is used: HepG2 cells are incubated in the presence of NBD-cholesterol (1 μg/ml) and of the test compound of formula (I) in black, transparent-bottom 96-well plates at a rate of 30000 cells per well. […] After adding 50 μl of lysis buffer (NaPO4 10 mM, Igepal 1%) the plates are agitated for 5 min and, read in fluorescence (excitation 490 nm, emission 540 nm) on a FUSION instrument (Perkin Elmer).

IC50: 71 nM
Compound: CC(C)c1cccc(C(C)C)c1NC(=O)NCC1(SCc2ccccc2)CCCCC1 [Compound (I.4), 1-(1-Benzylsulfanyl-cyclohexylmethyl)-3-(2,6-diisopropyl-phenyl)-urea]
